Results reported in patent US20230125052A1, “RED BLOOD CELL-DERIVED VESICLE” (Imperial College Innovations Limited, priority 2019, published 2023).
Blank lines part the entries; values can stand above or below the molecule they belong to. Square brackets hold non-standard residues; d marks the D form. Side chains are listed from the residue outwards. Ends that are not written are not given here. maleimidomethyl‑cyclohexane‑carboxamide = linker coupling the Cys to DSPE; DSPE = DSPE lipid anchoring the peptide in the vesicle membrane

How the values were obtained:
[1] = test system: thrombin-induced platelet aggregation; experiment: In vitro antiplatelet aggregation assay, thrombin-induced; type: cell-based, sheep; conditions: Ovis aries, equivalent ASA concentration of 0.1 mM, read-out: Percentage of inhibition of thrombin-induced platelet aggregation
Description: (§1) The final platelet count was adjusted to 2 × 10^8 platelets/mL. 150 µL of PRP was seeded in 96-well plates and was incubated with 50 µL of various formulations: ASA-RBCVs, ASA-RGD-RBCVs, ASA-cRGD-PEG-RBCVs or ASA (equivalent ASA concentration of 0.1 mM) in the presence of 10 µL platelet agonist thrombin in PBS (4 µM), arachidonic acid (AA) in PBS (400 µM) or adenosine diphosphate (ADP) in PBS (15 µM). After incubation under shaking at 37° C. for 40 min, the absorbance at 595 nm was measured by a GloMax-Multi Microplate Multimode Reader (Promega, USA). The aggregation percentage was calculated by the equation 2. From the platelet aggregation percentage and comparison to aggregation of PBS without samples, the inhibition percentage was calculated by the equation 3.

[2] = test system: ADP-induced platelet aggregation; experiment: In vitro antiplatelet aggregation assay, ADP-induced; type: cell-based, sheep; conditions: Ovis aries, equivalent ASA concentration of 0.1 mM, read-out: Percentage of inhibition of ADP-induced platelet aggregation
Description: as §1

[3] = test system: thrombin-induced thrombus in sheep blood; experiment: In vitro antithrombotic assay (wet thrombus weight); type: cell-based; conditions: equivalent ASA 0.1 mM, 37° C., 30 min
Description: 200 µL of sheep blood was added into a weighted tube. Then, 50 µL specific formulation (PBS, ASA-RBCVs, ASA-RGD-RBCVs, ASA-cRGD-PEG-RBCVs or ASA at an equivalent ASA concentration of 0.1 mM) was added in the tube, and then 10 µL of thrombin in PBS (4 µM) was added in each well and incubated at 37° C. under shaking for 30 min. Finally, the un-clotted blood was removed to obtain the weight of the wet clotted thrombus.

[4] = test system: AA-induced platelet aggregation; experiment: In vitro antiplatelet aggregation assay, arachidonic acid (AA)-induced; type: cell-based, sheep; conditions: Ovis aries, equivalent ASA concentration of 0.1 mM, read-out: Percentage of inhibition of AA-induced platelet aggregation
Description: as §1

[5] = test system: fibrinogen mediated platelet aggregation in platelet-rich plasma (active αIIbβ3); type: cell-based, sheep
Description: Binding affinity of free liner RGD or cRGD peptides to activated platelets can be indicated by a half maximal inhibitory concentration (IC50) value, which is the peptide concentration required to inhibit fibrinogen mediated platelet aggregation in platelet-rich plasma (PRP) by 50%. PRP was incubated with various concentrations of liner RGD or cRGD peptides in the presence of platelet agonist, thrombin (4 µM) for 30 min under stirring. The platelet aggregation percentage was determined with a GloMax-Multi Microplate Multimode Reader (Promega, USA) by measuring the absorbance at 595 nm. The platelet aggregation percentage was calculated by the following equation: […]
where Ao is the initial absorbance at 595 nm, and At is the absorbance at 595 nm after incubation.
The percentage platelet aggregation inhibition was calculated by the following equation: […]
where PAPBS is the platelet aggregation in the PRP control in the presence of thrombin and PBS only (no peptides), and PAs is the platelet aggregation in the PRP sample in the presence of thrombin and peptides.

[6] = target: active GPIIb-IIIa (αIIbβ3) integrin on thrombin-activated platelets (sheep); experiment: cell-based or functional assay
active GPIIb-IIIa (αIIbβ3) integrin on thrombin-activated platelets (sheep), sequence (chain, as listed by the source, chain 1 of 2): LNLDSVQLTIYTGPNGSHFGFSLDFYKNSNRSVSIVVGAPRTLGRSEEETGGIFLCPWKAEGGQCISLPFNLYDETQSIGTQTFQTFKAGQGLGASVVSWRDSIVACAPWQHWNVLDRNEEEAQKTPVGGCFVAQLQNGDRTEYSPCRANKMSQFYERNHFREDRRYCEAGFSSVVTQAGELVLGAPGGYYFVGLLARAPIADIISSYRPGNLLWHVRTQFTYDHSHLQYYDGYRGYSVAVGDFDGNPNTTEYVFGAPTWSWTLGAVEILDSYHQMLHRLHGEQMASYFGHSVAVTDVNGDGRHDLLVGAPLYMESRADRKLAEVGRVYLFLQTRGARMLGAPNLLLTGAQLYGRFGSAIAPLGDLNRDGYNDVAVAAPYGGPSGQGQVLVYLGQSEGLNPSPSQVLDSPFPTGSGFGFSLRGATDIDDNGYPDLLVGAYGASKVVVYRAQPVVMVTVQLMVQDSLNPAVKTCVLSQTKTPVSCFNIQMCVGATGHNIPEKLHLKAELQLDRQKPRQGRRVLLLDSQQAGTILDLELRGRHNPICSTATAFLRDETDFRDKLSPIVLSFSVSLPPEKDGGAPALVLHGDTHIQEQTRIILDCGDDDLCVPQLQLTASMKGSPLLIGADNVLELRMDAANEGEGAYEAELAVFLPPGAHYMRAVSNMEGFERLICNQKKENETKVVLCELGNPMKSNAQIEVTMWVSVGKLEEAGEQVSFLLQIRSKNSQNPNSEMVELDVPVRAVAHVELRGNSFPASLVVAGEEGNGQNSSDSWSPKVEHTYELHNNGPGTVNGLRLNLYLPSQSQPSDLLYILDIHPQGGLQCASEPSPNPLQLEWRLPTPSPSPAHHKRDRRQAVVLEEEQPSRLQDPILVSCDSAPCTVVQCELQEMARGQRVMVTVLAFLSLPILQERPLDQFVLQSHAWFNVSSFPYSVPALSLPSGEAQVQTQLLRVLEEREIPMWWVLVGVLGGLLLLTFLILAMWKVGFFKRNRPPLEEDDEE
active GPIIb-IIIa (αIIbβ3) integrin on thrombin-activated platelets (sheep), sequence (chain, as listed by the source, chain 2 of 2): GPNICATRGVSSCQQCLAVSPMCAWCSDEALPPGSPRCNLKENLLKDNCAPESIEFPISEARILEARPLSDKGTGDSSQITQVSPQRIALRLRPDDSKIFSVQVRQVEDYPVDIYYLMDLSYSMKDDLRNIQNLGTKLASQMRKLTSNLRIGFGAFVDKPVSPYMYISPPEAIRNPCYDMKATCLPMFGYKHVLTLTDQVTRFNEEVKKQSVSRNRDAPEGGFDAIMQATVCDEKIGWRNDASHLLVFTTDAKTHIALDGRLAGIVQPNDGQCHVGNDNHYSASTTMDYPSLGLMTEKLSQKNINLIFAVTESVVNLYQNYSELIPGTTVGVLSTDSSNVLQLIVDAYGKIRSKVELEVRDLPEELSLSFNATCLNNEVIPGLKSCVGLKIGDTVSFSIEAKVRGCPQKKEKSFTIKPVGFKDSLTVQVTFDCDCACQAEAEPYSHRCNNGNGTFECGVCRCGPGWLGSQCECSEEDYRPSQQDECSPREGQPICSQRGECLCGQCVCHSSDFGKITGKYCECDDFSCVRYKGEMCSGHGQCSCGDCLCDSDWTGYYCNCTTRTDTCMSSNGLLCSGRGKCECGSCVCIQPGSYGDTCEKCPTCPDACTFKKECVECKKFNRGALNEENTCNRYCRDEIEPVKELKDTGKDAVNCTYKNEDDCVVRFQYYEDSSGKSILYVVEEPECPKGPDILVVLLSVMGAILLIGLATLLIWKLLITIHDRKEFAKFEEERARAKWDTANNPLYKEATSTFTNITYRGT

fibrin clot = experiment: Fibrin clot lysis, agar plate assay, in the presence of activated platelets; type: biochemical; conditions: equivalent tPA 1 mg mL^-1, 37° C. overnight, activated platelets present
Description: Fibrin clot lysis by the tPA-loaded vesicles was measured by an agar plate assay. Briefly, 300 mg agar was dissolved in buffer mixture (15 mL of 0.05 M Tris-HCl buffer at pH 7.2 and 5 mL of 0.025 M CaCl2 solution). 50 mg Fibrinogen was dissolved in 10 mL of Tris-HCl buffer (0.05 M, pH 7.2). The agar solution was mixed with the fibrinogen solution, and then 10 µL thrombin (4.0 µM) was added under stirring for 1 min. The resulting mixture was spread carefully on a transparent plastic plate and homogeneous gels were obtained at 37° C. after 3h. […] were created in each plate and 5 µL of plasminogen solution (1 mg mL^-1) was then added into each sample well. PBS buffer, tPA-RBCVs, tPA-RGD-RBCVs, tPA-cRGD-PEG-RBCVs and free tPA (equivalent tPA dose of 1 mg mL^-1) were added into respective sample wells and incubated at 37° C. overnight. The area of the lysed zone in each well was measured to evaluate the degree of fibrin clot lysis.

Halo blood clots = experiment: Blood clot lysis in a Halo blood clot model; type: cell-based, sheep; conditions: after 45 min of treatment
Description: Briefly, a clotting mixture (5 mL of buffer containing 66 mM Tris-HCl, 130 mM NaCl and 45 mM CaCl2; 5 µL of 1 µM thrombin, pH 7.4) was freshly prepared. In a 96-well microplate, 5 µL of this clotting mixture was placed on one side of the well bottom, then 15 µL of whole blood was added on the opposite side of the well bottom. Clotting was initiated by mixing the two drops with a pipette tip in a circular motion to form a homogenous halo shape of blood around the edge of the well bottom, leaving the centre area empty. The plate was covered and incubated at 37° C. for 30 min. After clot formation, 80 µL tPA-RBCVs, tPA-RGD-RBCVs, tPA-cRGD-PEG-RBCVs and free tPA (equivalent tPA dose of 1 mg mL^-1) were added simultaneously into respective wells containing halo clots. The dissolution of the halo clots was determined with a plate reader GloMax-Multi Microplate Multimode Reader (Promega, USA) by measuring absorbance at 495 nm caused by RBCs progressively covering the centre of the well after clot degradation at 37° C. […] The percentage of clot dissolution was calculated according to the following equation: […]
where As is the absorbance of well at 495 nm after incubation with samples; An is the absorbance of negative control well at 495 nm; Ap is the absorbance of positive control well at 495 nm.

[7] = in circulation, background; cited from earlier work
[8] = target: T1, active GPIIb-IIIa (αIIbβ3) integrin on thrombin-activated platelets (sheep, UniProt A0ACI6RZ73 32-1033; A0ACI6S117 125-886); experiment: MFI of confocal images of thrombin-activated platelets; reference is uncoated RBCVs
T1 construct: whole, on cells; also called active αIIbβ3
T1 sequence (chain, as listed by the source, chain 1 of 2): as the sequence (chain, as listed by the source, chain 1 of 2) above
T1 sequence (chain, as listed by the source, chain 2 of 2): as the sequence (chain, as listed by the source, chain 2 of 2) above

[9] = target: T1, active GPIIb-IIIa (αIIbβ3) integrin on …; experiment: flow cytometry on thrombin-activated platelets; reference is uncoated RBCVs
Description: (§2) 2 mL platelets (1.0 × 10⁸ mL⁻¹) were seeded in 6-well plates and activated by incubation with 100 µL thrombin (1 U/mL) for at least 20 min. Inactivated platelets or thrombin-activated platelets were incubated with various NBD-labelled RBCV formulations (equivalent NBD-PE of 1.0 × 10⁻⁷ mol). Free vesicles, which were not attached to platelets, were removed by centrifugation. Data for 1.0 × 10⁴ gated events were collected and analysed using a BD Fortessa II flow cytometer.

[10] = target: T1, active GPIIb-IIIa (αIIbβ3) integrin on …; experiment: MFI of confocal images of thrombin-activated platelets; reference is uncoated tPA-RBCVs
Description: 2 mL platelets (1.0 × 10⁸ mL⁻¹) were seeded in 6-well plates, with a collagen-coated glass coverslip on the bottom of each well. After 30 min, 100 µL thrombin (1 U/mL) was added onto the platelet-adhered coverslips to ensure activation of platelets at least 20 min. Inactivated platelets or thrombin-activated platelets were incubated with various FITC-labelled tPA-loaded vesicle formulations (equivalent tPA concentration of 0.2 mg mL⁻¹). The platelets were then fixed with 4.0% formaldehyde for 30 min, followed by rinsing with pH 7.4 PBS buffer for three times. Subsequently, the resulting slides were mounted and observed with a Leica SP₅ MP confocal microscope.

[11] = target: T1, active GPIIb-IIIa (αIIbβ3) integrin on …; experiment: flow cytometry on thrombin-activated platelets; reference is uncoated tPA-RBCVs
Description: as §2, with “FITC-labelled tPA-loaded vesicle” for “NBD-labelled RBCV”, “tPA concentration” for “NBD-PE”, “0.2 mg mL⁻¹).” for “1.0 × 10⁻⁷ mol).”

[12] = target: T1, active GPIIb-IIIa (αIIbβ3) integrin on …; experiment: cell-based or functional assay

Molecule: CC(=O)Oc1ccccc1C(=O)O [ASA, acetylsalicylic acid]
inhibition at 100 µM [1]: 20.5 ± 1.04%
inhibition at 100 µM [2]: 27.6 ± 2.71%
Thrombus weight [3]: 49.27 ± 10.73 mg
inhibition at 100 µM [4]: 23.8 ± 4.26%

Molecule: tPA: Tissue plasminogen activator (tPA, alteplase), product of Boehringer Ingelheim
Area of fibrin lysis ring (fibrin clot): 1.18 ± 0.17 cm^2
Blood clot lysis (in words) (Halo blood clots): complete blood clot lysis
Half-life [7]: 2~6 min

B1: RGD-coated red blood cell-derived vesicles without drug (RGD-RBCVs) (other)
peptide: C([maleimidomethyl‑cyclohexane‑carboxamide-DSPE])RGD
notes: Vesicle labelled with NBD-PE for flow cytometry and CLSM, or with NBD-PE and Rhod-PE for FRET; also called NBD-labelled RGD-RBCVs
fold enhancement in binding affinity (MFI) against RBCVs [8]: ~4 fold
fold increase in fluorescence intensity against NBD-labelled RBCVs [9]: > 4 fold

Molecule: cyclo(RGD[dF]V) [cyclo(Arg-Gly-Asp-d-Phe-Val), free]
IC50 (peptide concentration for 50% inhibition of fibrinogen-mediated platelet aggregation in PRP, thrombin 4 µM) [12]: 460 µM

The remaining lines, values ahead:

IC50 [5]: 460 µM
Molecule: CC(C)[C@@H]1NC(=O)[C@@H](Cc2ccccc2)NC(=O)[C@H](CC(=O)O)NC(=O)CNC(=O)[C@H](CCCNC(=N)N)NC1=O [cRGD, cyclo(Arg-Gly-Asp-d-Phe-Val)]

IC50 (peptide concentration for 50% inhibition of fibrinogen-mediated platelet aggregation in PRP, thrombin 4 µM) [6]: 382 µM
Molecule: linear RGD peptide (Arg-Gly-Asp), free

fold enhancement in binding affinity (MFI) against tPA-RBCVs [10]: ~4 fold
fold increase in fluorescence intensity against FITC-labelled tPA-RBCVs [11]: > 4 fold
B2: tPA-loaded, RGD-coated red blood cell-derived vesicles (tPA-RGD-RBCVs) (other)
peptide: C([maleimidomethyl‑cyclohexane‑carboxamide-DSPE])RGD
modifications: also: many copies anchored in red blood cell-derived vesicle membrane, tPA encapsulated
notes: also called FITC-labelled tPA-RGD-RBCVs; fibrinogen-mimicking RBCV
